# Test results reported in patent US8552048B2, “Phosphoramidate alkylator prodrugs for the treatment of cancer” (Threshold Pharmaceuticals, Inc., priority 2006, dated 2013).
# Entries after “also recorded” stand apart in the source; their conditions may differ.
# Legend:
# [1] = Stability of ethanol formulation of TH302 by HPLC; assay type: physicochemical; details: for TH302 (%): 40 μg/mL in ethanol
# Protocol: A liquid formulation of TH302 in ethanol was prepared containing 1 mg TH302 in 1 mL of the solution. Aliquots were withdrawn from this formulation and diluted with ethanol to yield a 40 μg/mL formulation of TH302 in ethanol, which was incubated at 20° C. and 37° C. and the stability analyzed by high performance liquid chromatography (HPLC). The HPLC employed the following components and conditions: column (Alltech, Alltima C18, 50×4.6, 3 μm), mobile phase (water and acetonitrile), flow rate 0.8 mL/min, injection volume (10 μL), detection (UV detection at 325 nm and 254 nm), and column temperature (room temperature). The composition of the mobile phase was as tabulated below: […]
# [2] = test system: IGROV1 human ovarian cancer cells; assay: IGROV1 ovarian cancer xenograft; assay type: in vivo; details: 75 mg/kg i.v. Q7D×2
# Protocol: Forty nude mice were subcutaneously implanted with IGROV1 human ovarian cancer cells (5×10^6 cells/mouse). The tumor volumes were measured twice weekly starting on day 7. On day 8, tumor volumes reached about 97.7±3.9 mm^3. The mice were randomized in 3 treatment groups that were administered the following: CDDP (4 mg/kg, ip, Q7D×2), CDDP (6 mg/kg, i.p. Q7D×2), and TH302 (75 mg/kg, i.v., Q7D×2). A control group of mice were administered saline. […] Forty five days after the first administration of TH302, tumor growth inhibition was 66%. The tumor growth delay (to 300 mm^3) was 19 days.
# H460 NSCLC cancer cells = assay: H460 pleural cavity metastatic tumor model; assay type: in vivo, mice; details: TH302 alone Q3D×5, 100 mg/kg, i.v.
# Protocol: Metastatic tumors were also grown in mice by injecting H460 NSCLC cancer cells into the pleural cavity. Metastases were observed among other organs in the lungs and ovary. […] Thus, TH302 is effective in treatment of metastatic tumors, when administered alone and in combination with another anti cancer agent.
# H460 xenograft tumor = assay: H460 xenograft, TH302 in combination with X-ray radiation; assay type: in vivo, mice; details: X-ray 1.2 Gy/day for 5 days with TH302 ip 75 mg/kg per day for 5 days, 30 min after each radiation dose; 75 mg/kg/day
# Protocol: H460 xenograft tumor bearing mice were treated with X-ray radiation (one cycle of 1.2 Gy/day for 5 days) alone and in combination with TH302 (administered ip, 75 mg/kg per day for 5 consecutive days 30 min after each radiation dose). […] The oxygen radicals involved in killing tumor cells, and which are generated by irradiation of oxygen e.g. under normoxic conditions, can not form efficiently under hypoxic conditions.
# [3] = Single-dose toxicity in rats; assay type: in vivo
# Protocol: (§1) A single-dose of TH302 was administered to rats and dogs over 30 min in order to achieve a rapid increase to relatively high drug levels. Rats were administered 50, 100, and 200 mg/kg, and dogs at 8, 16 and 32 mg/kg of TH302. […] These changes at the lowest toxicity level were fully reversible within 2 weeks.
# [4] = Single-dose toxicity in dogs; assay type: in vivo
# Protocol: as §1
# [5] = GLP multiple-dose toxicity study in rats; assay type: in vivo
# Protocol: Each rat received a 30 minute infusion once a week for three weeks (Q7D×3).
# [6] = Repeat dose GLP study with dogs; assay type: in vivo
# Source text: These changes were reversible.
# [7] = Pharmacokinetics in nude mice; assay type: in vivo; details: female, mouse, plasma
# [8] = Pharmacokinetics in beagle dogs (20 mg/kg i.v.); assay type: in vivo; details: dog, plasma, iv
# Protocol: Pharmacokinetic studies were performed in male CD-1 (50 mg/kg i.p. or orally (p.o.)) or female nude mice (50 mg/kg i.v. or i.p.), male Sprague-Dawley rats (1, 5, 20 and 50 mg/kg i.v. and 100 mg/kg, p.o.), beagle dogs (20 mg/kg, i.v.) and cynomologus monkeys (20 mg/kg i.v.). Plasma TH302 concentrations were analyzed using a LC/MS method and the pharmacokinetic parameters computed using a noncompartmental method. Interspecies scaling was performed according to standard methods.
# [9] = Biodistribution by whole body autoradiography; assay type: in vivo, male Sprague Dawley rats; details: rats, [^14C] TH302 50 mg/kg single i.v. bolus
# Protocol: TH302 to rats. Five male Sprague Dawley rats were assigned to one dose group. Non-radiolabeled TH302 (0.06 g) was weighed into an appropriate formulation bottle, a solution of 153 μL of [^14C] TH302 was measured and transferred to the formulation bottle, followed by the addition of 6.85 mL of 50 PEG400 in saline. The resulting formulation was cold-sterilized by filtration through a 0.22 μm mesh size commercial filter. The dosing formulation was kept at ambient temperature and in the dark pending dose administration. Animals were administered radiolabelled TH302 by intravenous injection of the formulation at a dose of 50 mg/kg wherein a radioactivity of about 100 μCi was administered. Following administration of TH302, the animals were sacrificed at selected time-points and carcasses were flash-frozen and processed for sectioning. A series of sagittal and para-sagittal sections were obtained from each carcass and were exposed to highly sensitive film until adequate imprinting of radioactivity was obtained. The pictures obtained were analyzed semi-quantitatively using computerized densitometry.
smiles,measurement,setting,value
Cn1c(COP(=O)(NCCBr)NCCBr)cnc1[N+](=O)[O-] [TH302],TH302 (%),"[1]; 20° C., incubated 0 days",96.97%
same,TH302 (%),"[1]; 20° C., incubated 3 days",96.98%
same,TH302 (%),"[1]; 20° C., incubated 5 days",96.91%
same,TH302 (%),"[1]; 20° C., incubated 7 days",96.96%
same,TH302 (%),"[1]; 20° C., incubated 10 days",96.95%
same,TH302 (%),"[1]; 20° C., incubated 14 days",96.98%
same,TH302 (%),"[1]; 37° C., incubated 0 days",96.97%
same,TH302 (%),"[1]; 37° C., incubated 3 days",96.95%
same,TH302 (%),"[1]; 37° C., incubated 5 days",96.98%
same,TH302 (%),"[1]; 37° C., incubated 7 days",96.98%
same,TH302 (%),"[1]; 37° C., incubated 10 days",96.30%
same,TH302 (%),"[1]; 37° C., incubated 14 days",96.01%
same,TH302 (%),"[1]; 37° C., incubated 24 days",95.46%
same,stability of solution in ethyl alcohol,"[1]; 20° C., under the test conditions",stable
same,body weight during the treatment period,[2],body weight gain
same,tumor growth delay (to 300 mm^3),[2],19 days
same,growth inhibition (significance),[2]; P<0.05,significant growth inhibition
same,tumor growth inhibition,[2]; forty five days after the first administration,66%
same,metastatic tumor mass,H460 NSCLC cancer cells,visible reduction in metastatic tumor mass
same,effect on anti tumor efficacy of radiation,H460 xenograft tumor,enhances the anti cancer effect of X-ray; also recorded: enhances the anti tumor efficacy of radiation
same,affected organs at the highest dose level,[3]; 200 mg/kg single dose,"bone marrow, kidney, thymus and intestine"
same,lethality,"[3]; single dose over 30 min, highest dose 200 mg/kg",lethality was observed
same,primary findings at the lowest toxicity level,[3]; single dose study,reduction in white blood cell counts accompanied only by moderate weight loss in male rats
same,time to full reversal of changes at the lowest toxicity level,[3]; single dose study,≤ 2 weeks
same,species specific toxicity at the highest dose,"[3]; single dose, 200 mg/kg",rat adipose and spleen
same,affected organs at the highest dose level,[4]; 32 mg/kg single dose,"bone marrow, kidney, thymus and intestine"
same,lethality,"[4]; single dose over 30 min, highest dose 32 mg/kg",lethality was observed
same,primary findings at the lowest toxicity level,[4]; single dose study,reduction in white blood cell counts
same,time to full reversal of changes at the lowest toxicity level,[4]; single dose study,≤ 2 weeks
same,human equivalent dose of the minimally toxic dose,[5]; 25 mg/kg rat dose divided by 6.2,about 4 mg/kg
same,minimally toxic dose,[5]; rat,25 mg/kg
same,histopathology at the highest dose,"[5]; rats, 50 mg/kg Q7D×3",effects on the bone marrow and the tongue with minor effects on the kidney and the uterus
same,primary toxicities,"[5]; rats, 12.5, 25 and 50 mg/kg, 30 minute infusion Q7D×3",hematologic in nature and were reversible
same,human equivalent dose of the minimally toxic dose,[6]; 8 mg/kg dog dose divided by 1.8,about 4.5 mg/kg
same,minimally toxic dose,[6]; dog,8 mg/kg
same,bone marrow finding at the high dose level,"[6]; dogs, 16 mg/kg repeat dose",hypocellularity was also reported in the bone marrow
same,hematologic findings,"[6]; dogs, 4, 8, and 16 mg/kg repeat dose, particularly at the high dose level",leucopenia and neutropenia were evident
same,reversibility of changes,"[6]; dogs, repeat dose",reversible
same,Vd,"[7]; intravenous, 50 mg/kg, read-out: apparent steady-state volume of distribution (Vss)",0.542 L/kg
same,clearance,"[7]; intravenous, 50 mg/kg, read-out: total body clearance (Cl) (converted)",72.8 mL/min/kg
same,half-life,"[7]; iv, 50 mg/kg i.v.",8.2 min
same,half-life,"[7]; po, 50 mg/kg p.o. (so in the source)",9.7 min
same,half-life,[8]; read-out: Mean t1/2,49.2 min
same,clearance,[8]; read-out: mean Cl (converted),54.7 mL/min/kg
same,Vd,[8]; read-out: mean Vss,1.98 L/kg
same,distribution of radioactivity,[9],"associated with the gastro-intestinal (GI) tract, its contents, and the kidney"
